Here are results for 102 compounds from ChEMBL document CHEMBL3507680, “University of Dundee, Gates Library screen for HepG2 cell viability”.

The nature of this data set: Human HepG2 cell viability assay in 384 well format. It is filed as toxicity, cell-based. Details: dose 125 nL, time 70.5 hour; concentration not given beside the values. Conditions: HepG2 cells, read-out: Inhibition.
With `Cc1cccc(C)c1NC(=O)CN(C)C(C)c1nc(C(C)(C)C)no1` (configuration not stated), the cytotoxicity at 70.5 h was -88.9%.
To `CCc1noc(C(C)N(C)CC(=O)Nc2ccc(Br)cc2C)n1` (configuration not stated) belongs -96.5%.
`CC1(NC(=O)Cc2cccs2)CCS(=O)(=O)C1` (configuration not stated): the cytotoxicity at 70.5 h was -85.8%.
To `Nc1cc(CCCNC(=O)NC2CCCC2)nn1-c1ccccc1` belongs -102%; to `CC(NC(=O)C1=NN(C)C(=O)CC1)c1ccc(Cl)cc1` (configuration not stated), -110%; to `CC(NC(=O)C1=NN(C)C(=O)CC1)c1cccc(Cl)c1` (configuration not stated), -85.8%.
On to `CCSc1cc(C(=O)NCCC(=O)N(C)C)ccn1`, for which the cytotoxicity at 70.5 h is -103%.
To `Cc1ccc(C(=O)NCC(C)CN2CCCC2=O)c(=O)[nH]1` (configuration not stated) belongs -113%; to `CCCc1cc(NC2CCc3nc(C)nn3C2)n2ncnc2n1` (configuration not stated), -112%; to `Cc1cnn(CC2CCCN2Cc2coc(-c3ccc(F)cc3)n2)c1` (configuration not stated), -115%.
On to `Cc1cc(NC2CCc3nc(C)nn3C2)n2ncnc2n1` (configuration not stated), for which the cytotoxicity at 70.5 h was -98.6%.
To `O=C(NS(=O)(=O)c1ccccc1C(F)(F)F)c1cccc2c1OCCO2` belongs -75.1%.
Turning to `Cc1ccc(C)c(S(=O)(=O)NC(=O)c2cccc3c2OCCO3)c1`, the cytotoxicity at 70.5 h is -104%.
As to `COCCC(C)NC(=O)N1CCC(n2ccc(C(F)(F)F)n2)CC1` (configuration not stated), the cytotoxicity at 70.5 h was -98.6%.
With `C[C@H]1CN(C(=O)c2cccc(F)c2Cl)CCN1S(C)(=O)=O`, the cytotoxicity at 70.5 h is -95.8%.
In the case of `O=C(NCc1ccon1)N1CCC(n2ccc(C(F)(F)F)n2)CC1`, the cytotoxicity at 70.5 h is -94.1%.
To `CCc1noc(C(C)N(C)CC(=O)Nc2cccc(C)c2C)n1` (configuration not stated) belongs 20.2%; to `CCSc1cc(C(=O)NCC(C)(C)N(C)C)ccn1`, -90.6%.
Turning to `CC(OCC(F)(F)F)C(=O)N1CCOCC1` (configuration not stated), the cytotoxicity at 70.5 h was -99.6%.
Under `CCc1ncc2c(n1)CN(Cc1cnc(C)cn1)CC2` stands -72.8%.
To `CCc1noc(C(C)N(C)CC(=O)Nc2ccccc2Cl)n1` (configuration not stated) belongs -89.8%; to `CCc1noc(C(C)N(C)CC(=O)Nc2ccc(Cl)c(C(F)(F)F)c2)n1` (configuration not stated), -97%; to `c1csc(-c2nc(CN3CCCCC3Cn3cccn3)co2)c1` (configuration not stated), -58%.
Under `Cc1nc(CN2CCc3cnc(C(C)C)nc3C2)oc1C` stands -77.4%.
For the compound `CC(C)C(C(=O)N1CCCN(Cc2cscn2)CC1)n1cncn1` (configuration not stated), the cytotoxicity at 70.5 h was -4.6%.
Under `O=C(c1cc(Cl)c2c(c1)OCO2)N1CCN(c2cnccn2)CC1` stands 0.695%; under `Cc1ccc(C(=O)NC2CCN(Cc3nc(C(C)C)no3)CC2)s1`, -5.38%; under `Cc1c(CC(=O)N2CCSCC2)nnn1-c1cccc(Cl)c1`, 23.4%.
For the compound `O=C(c1cccc(NCCOc2ccc(F)cc2)c1)N1CCOCC1`, the cytotoxicity at 70.5 h worked out at 4.98%.
Consider `CC(C)C(C(=O)N1CCN(Cc2cscn2)CC1)n1cncn1` (configuration not stated), for which the cytotoxicity at 70.5 h was -1.99%.
For the compound `CC(C)(NC(=O)CCc1ccco1)c1ccc2c(c1)OCCO2`, the cytotoxicity at 70.5 h was -2.91%.
On to `Cc1nc(CN2CCN(C(=O)C(C(C)C)n3cncn3)CC2)cs1` (configuration not stated), for which the cytotoxicity at 70.5 h is -1.55%.
For `Cc1cc(CN2CCN(C(=O)C(C(C)C)n3cncn3)CC2)no1` (configuration not stated), the cytotoxicity at 70.5 h is -8.12%.
Consider `Cc1ccc(-n2nnc(CC(=O)N3CCN(C4CC4)CC3)c2C)cc1`, for which the cytotoxicity at 70.5 h was -8.64%.
As to `Cc1oc(-c2ccsc2)nc1CC(=O)NCC(C)(C)CN(C)C`, the cytotoxicity at 70.5 h is -9.09%.
To `COc1ccc(-c2nc(CN3CC(n4cccn4)C3)no2)cc1` belongs -5.24%; to `Cc1cc(C)n(C2CN(Cc3noc(C4CC4)n3)C2)n1`, 20.6%.
On to `COCC(NC(=O)c1cc(C)n(C)n1)c1cccc(C(F)(F)F)c1` (configuration not stated), for which the cytotoxicity at 70.5 h is 4.67%.
As for `Cc1ccc(-c2nc(CN3CC(n4nc(C)cc4C)C3)no2)cc1`, the cytotoxicity at 70.5 h was -8.79%.
For `CCn1nc2c(cc1=O)CN(Cc1nc3ccccc3o1)CC2`, the cytotoxicity at 70.5 h is -9.68%.
For `CCCn1nc2c(cc1=O)CN(Cc1nc(C)c3ccccc3n1)CC2`, the cytotoxicity at 70.5 h was -7.04%.
Regarding `Cn1nc2c(cc1=O)CN(Cc1nc3ccccc3c(=O)[nH]1)CC2`, the cytotoxicity at 70.5 h is -6.45%.
Consider `Cc1ccc(OC2CCN(S(=O)(=O)N(C)C)CC2)nc1`, for which the cytotoxicity at 70.5 h is -12.1%.
For the compound `CCc1noc(CN(Cc2cccs2)C2CC2)n1`, the cytotoxicity at 70.5 h was determined as 0.387%.
For the compound `CCOc1cc(CN(C)CCC(=O)OC)ccc1OC(F)F`, the cytotoxicity at 70.5 h was -2.34%.
`CCOc1cc(CN(C)CCC#N)ccc1OC(F)F`: the cytotoxicity at 70.5 h is -5.38%.
For the compound `CCOc1cc(CN(C)CCCC#N)ccc1OC(F)F`, the cytotoxicity at 70.5 h was -6.87%.
Regarding `O=C(C(CNCc1ccco1)c1ccccc1)N1CCOCC1` (configuration not stated), the cytotoxicity at 70.5 h was -4.97%.
Take `COc1cc(NCc2c(C)noc2C)c(OC)cc1Cl`: the cytotoxicity at 70.5 h is 10.4%.
Under `COC(=O)CNC(=O)C1CCN(S(C)(=O)=O)CC1` stands -9.71%; under `Cc1nn(CC(O)CN2CCc3ccccc3C2)c(=O)c2ccccc12` (configuration not stated), -17.4%; under `CCN1CCC(NC(=O)CN2CCCC(NS(C)(=O)=O)C2)CC1` (configuration not stated), -10.1%.
For `Cc1nnc2n1CCN(c1nn3cc(C(C)(C)C)nc3s1)C2`, the cytotoxicity at 70.5 h is -7.66%.
`CNC(=O)NC(=O)CCN1CCCC1c1nc(C2CCCCC2)co1` (configuration not stated): the cytotoxicity at 70.5 h was -7.7%.
With `CCN(C(=O)COc1nc(C(C)(C)C)no1)C1CC1`, the cytotoxicity at 70.5 h is -2.91%.
Consider `Cc1cnn(CCNCC(O)c2ccc(C(F)(F)F)cc2)c1` (configuration not stated), for which the cytotoxicity at 70.5 h was -17.1%.
To `Cc1cn2nc(N3CCn4c(nnc4C(C)C)C3)sc2n1` belongs 12%; to `CC(NC(=O)c1ccc(C#N)cn1)C1(N2CCOCC2)CCCC1` (configuration not stated), -7.03%; to `N#Cc1ccc(F)c(CNC(=O)NC(CO)Cc2ccccc2)c1` (configuration not stated), -3.61%.
Under `CN(Cc1nnc2n1CCC2)S(=O)(=O)c1ccc(Br)cc1Cl` stands -4.12%; under `CN(Cc1nnc2n1CCC2)S(=O)(=O)c1cc(Br)ccc1Br`, -13.1%.
`CNC(=O)NC(=O)CCSc1ccccc1Cl`: the cytotoxicity at 70.5 h is -1.01%.
Turning to `O=C(COCC1CC1)NCC(c1ccccc1)N1CCc2sccc2C1` (configuration not stated), the cytotoxicity at 70.5 h was -6.84%.
Under `CC(NC(=O)Nc1nccs1)c1ccc(S(C)(=O)=O)cc1` (configuration not stated) stands -18.5%; under `Cc1cccc(N2N=C(C(=O)NC(C)Cc3ccco3)CCC2=O)c1` (configuration not stated), -13.7%.
On to `CC(Cc1ccco1)NC(=O)C1=NN(c2ccccc2)C(=O)CC1` (configuration not stated), for which the cytotoxicity at 70.5 h was 16.9%.
On to `CC(C)N(C)C(=O)c1ccc(Cl)c(NC(=O)CCN2C(=O)CCC2=O)c1`, for which the cytotoxicity at 70.5 h was -9.99%.
As for `CC(C)CC(=O)Nc1cc(C(=O)N(C)C(C)C)ccc1Cl`, the cytotoxicity at 70.5 h is -8.37%.
For `NC(=O)Nc1cccc(C(=O)N(Cc2ccc(F)cc2)C2CC2)c1`, the cytotoxicity at 70.5 h was -14.8%.
Turning to `CC(=O)N1CCC(NC(=O)Cc2csc(C(C)(C)C)n2)CC1`, the cytotoxicity at 70.5 h is -6.85%.
Turning to `Cc1nnc(CN(C)S(=O)(=O)c2ccc(Br)cc2Cl)n1C`, the cytotoxicity at 70.5 h was -8.93%.
Regarding `CCC(=O)NC1CCCN(C(=O)Nc2cc(-c3ccccc3)on2)C1` (configuration not stated), the cytotoxicity at 70.5 h was -10.8%.
Turning to `CC(C)OCCS(=O)(=O)c1nccn1-c1cccc(F)c1`, the cytotoxicity at 70.5 h is -9.1%.
Turning to `Cc1sc(Br)cc1S(=O)(=O)NCc1ccccn1`, the cytotoxicity at 70.5 h was -18.2%.
With `COCCCNS(=O)(=O)c1cc(Br)sc1C`, the cytotoxicity at 70.5 h was -6.02%.
To `CCC1CN(CC(=O)NCCC#N)CCO1` (configuration not stated) belongs 2.5%; to `CN1CC(NC(=O)Cc2csc(C(C)(C)C)n2)CCC1=O` (configuration not stated), 20.1%; to `CC(C)(C)c1noc(CCCC(=O)N2CCCC(c3ccn[nH]3)C2)n1` (configuration not stated), -2.4%.
As to `CCc1noc(CCCC(=O)N2CCCC(c3ccn[nH]3)C2)n1` (configuration not stated), the cytotoxicity at 70.5 h was -5.32%.
As to `CC1CCN(C(=O)CN2CCC(c3n[nH]c(C4CC4)n3)CC2)CC1`, the cytotoxicity at 70.5 h is -1.53%.
Turning to `Cc1noc(C2CCCN(CC(=O)N3CCc4ccccc4C3)C2)n1` (configuration not stated), the cytotoxicity at 70.5 h is -1.69%.
In the case of `O=C(CCN1C(=O)CCC1=O)Nc1ccc(Cl)cc1`, the cytotoxicity at 70.5 h is -1.6%.
Turning to `O=C(CCN1C(=O)CCC1=O)Nc1ccc(Oc2ccc(Cl)cc2)nc1`, the cytotoxicity at 70.5 h was -10.7%.
Regarding `Cc1noc(C2CCN(CC(=O)N3CCNC(=O)C3)CC2)n1`, the cytotoxicity at 70.5 h was 17.7%.
Regarding `CNC(=O)c1cccc(NC(=O)NC(C)c2cc(C)oc2C)c1C` (configuration not stated), the cytotoxicity at 70.5 h was -8.35%.
As for `CCN(C(=O)CN1CCC(c2n[nH]c(C3CC3)n2)CC1)C1CC1`, the cytotoxicity at 70.5 h is -5.09%.
As for `C=C(C)CN1CCC(c2n[nH]c(C3CC3)n2)CC1`, the cytotoxicity at 70.5 h turned out to be 23.2%.
For `N#Cc1cccc(S(=O)(=O)Nc2c(F)cccc2N2CCCC2)c1`, the cytotoxicity at 70.5 h is -5.48%.
Turning to `CCOc1ccccc1CNC(=O)N(CC)C(C)c1cccnc1` (configuration not stated), the cytotoxicity at 70.5 h was -6.76%.
To `CC(C)(C)Oc1ccccc1CNC(=O)C1CCCOC1` (configuration not stated) belongs -0.0152%.
Take `CCOc1ccc(CNC(=O)N(C)Cc2ncnn2C)cc1C`: the cytotoxicity at 70.5 h came out at 1.14%.
Under `O=C(c1nc(=O)[nH][nH]1)N1CCCCCC1` stands -1.45%; under `Cc1noc(NS(=O)(=O)c2ccc(Cl)s2)c1C`, -0.524%.
In the case of `O=S(=O)(Nc1c(F)cccc1N1CCCC1)c1cncc(F)c1`, the cytotoxicity at 70.5 h was -5.83%.
To `O=C(c1nc(=O)[nH][nH]1)N1CCC2(CCCCC2)C1` belongs 20.2%; to `CC(=O)N(CCc1ccccc1)CC(=O)Nc1ccccc1C#N`, -1.29%; to `COc1ccc(CNc2nnc(CC(C)(C)C)o2)cc1C#N`, -3.97%.
In the case of `CCC(C)Oc1cc(C(=O)Nc2nccs2)ccn1` (configuration not stated), the cytotoxicity at 70.5 h is 0.776%.
To `CC(C)OCCN1CCc2cncnc2C1` belongs 4.2%; to `CC(=O)N(CCC(=O)NC1(C#N)CCC1)Cc1ccccc1`, 21.1%.
For `OC(COCc1ccco1)CSc1nnc2ccccn12` (configuration not stated), the cytotoxicity at 70.5 h was -6.03%.
On to `CCN(C(=O)NCc1ccc(C)cc1OC)C(C)c1cccnc1` (configuration not stated), for which the cytotoxicity at 70.5 h is -6.56%.
